Results as given in PMC5674802 (Molecular cell, 2017).

Biological target: RagA-RagC heterodimer, RagC nucleotide site (Homo sapiens, UniProt Q9HB90)
Experiment: UV crosslinking of radiolabelled nucleotide, SDS-PAGE autoradiography
Format: binding

Sequence of RagA-RagC heterodimer, RagC nucleotide site (Q9HB90 2-399): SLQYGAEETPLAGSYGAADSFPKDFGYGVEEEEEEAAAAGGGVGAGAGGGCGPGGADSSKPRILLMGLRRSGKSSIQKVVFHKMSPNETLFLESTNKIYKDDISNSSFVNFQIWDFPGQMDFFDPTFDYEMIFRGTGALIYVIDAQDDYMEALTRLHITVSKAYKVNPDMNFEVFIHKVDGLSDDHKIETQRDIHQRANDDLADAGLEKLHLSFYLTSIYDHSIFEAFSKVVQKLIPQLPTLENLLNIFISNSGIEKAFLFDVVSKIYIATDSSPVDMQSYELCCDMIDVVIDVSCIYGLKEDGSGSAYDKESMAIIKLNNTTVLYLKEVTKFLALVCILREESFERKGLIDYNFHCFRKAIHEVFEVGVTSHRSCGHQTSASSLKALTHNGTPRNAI
Sequence of RagA-RagC heterodimer, RagC nucleotide site (Q7L523 whole entry partner): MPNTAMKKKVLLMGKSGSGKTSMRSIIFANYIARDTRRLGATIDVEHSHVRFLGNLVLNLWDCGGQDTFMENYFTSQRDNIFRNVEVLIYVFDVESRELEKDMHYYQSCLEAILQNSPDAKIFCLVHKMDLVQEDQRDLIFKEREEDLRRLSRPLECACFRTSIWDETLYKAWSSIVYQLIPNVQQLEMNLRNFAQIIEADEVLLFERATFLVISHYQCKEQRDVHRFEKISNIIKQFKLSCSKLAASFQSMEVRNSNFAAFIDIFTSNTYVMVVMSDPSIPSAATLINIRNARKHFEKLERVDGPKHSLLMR

- Kd: 11 nM
SMILES: Nc1nc2c(ncn2[C@@H]2O[C@H](COP(=O)(O)OP(=O)(O)OP(=O)(O)O)[C@@H](O)[C@H]2O)c(=O)[nH]1 [GTP]
